Test results as given in PubChem BioAssay AID330 (DTP/NCI, 2004).
Where “and” joins values, the source holds several entries; their conditions need not be identical. Equal values may be shown once. Inconclusive results and toxic doses are left out. How the source made its calls: active means survival T/C of 150% or more; inactive means T/C below 125% in these data.

Test system: P388 leukemia ip, CD2F1 mice, survival T/C
Assay: NCI In Vivo Anticancer Drug Screen. Data for tumor model P388 Leukemia (intraperitoneal) in CD2F1 (CDF1) mice
Details: endpoint: median survival time, higher = longer survival
How it was run: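 Mice carrying the transplanted tumor received test compound or vehicle. Survival was recorded in each group, and the value is the treated-group measurement divided by that of the vehicle-treated control group.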

[1] = dose: 50.0 mg/kg/injection, schedule: Q01DX009 (ip), vehicle: saline with Tween-80
[2] = dose: 100.0 mg/kg/injection, schedule: Q01DX009 (ip), vehicle: saline with Tween-80
[3] = dose: 200.0 mg/kg/injection, schedule: Q01DX009 (ip), vehicle: saline with Tween-80
[4] = dose: 50.0 mg/kg/injection, schedule: Q01DX005 (ip), vehicle: saline
[5] = dose: 100.0 mg/kg/injection, schedule: Q01DX005 (ip), vehicle: saline
[6] = dose: 200.0 mg/kg/injection, schedule: Q01DX005 (ip), vehicle: saline
[7] = dose: 50.0 mg/kg/injection, schedule: Q01DX009 (ip), vehicle: Klucel (hydroxypropylcellulose) (HPC)
[8] = dose: 100.0 mg/kg/injection, schedule: Q01DX009 (ip), vehicle: Klucel (hydroxypropylcellulose) (HPC)
[9] = dose: 200.0 mg/kg/injection, schedule: Q01DX009 (ip), vehicle: Klucel (hydroxypropylcellulose) (HPC)
[10] = dose: 100.0 mg/kg/injection, schedule: Q01DX005 (ip), vehicle: Klucel (hydroxypropylcellulose) (HPC)
[11] = dose: 200.0 mg/kg/injection, schedule: Q01DX005 (ip), vehicle: Klucel (hydroxypropylcellulose) (HPC)
[12] = dose: 50.0 mg/kg/injection, schedule: Q01DX005 (ip), vehicle: Klucel (hydroxypropylcellulose) (HPC)
[13] = dose: 60.0 mg/kg/injection, schedule: Q01DX005 (ip), vehicle: saline with Tween-80
[14] = dose: 120.0 mg/kg/injection, schedule: Q01DX005 (ip), vehicle: saline with Tween-80
[15] = dose: 240.0 mg/kg/injection, schedule: Q01DX005 (ip), vehicle: saline with Tween-80

Measured: T/C

C[n+]1cccc(C2(O)CCCC2)c1
inactive: [1] 113 % of control | [2] 104 % of control | [3] 99 % of control

c1ccc(CN2COC3CCCCC32)cc1 (stereo unspecified)
inactive: dose: 25.0 mg/kg/injection, schedule: Q01DX005 (ip), vehicle: saline 107 % of control and 108 % of control | [4] 101 % of control and 105 % of control and 119 % of control | [5] 101 % of control and 107 % of control and 121 % of control | [6] 103 % of control and 105 % of control

COc1ccc(OC)c(CCN2C(=O)c3cccc4c([N+](=O)[O-])ccc(c34)C2=O)c1
inactive: [7] 98 % of control | [8] 106 % of control | [9] 113 % of control

C=CCNC(=O)C(NC(=O)OCCCC)NC(=O)OCCCC
inactive: dose: 50.0 mg/kg/injection, schedule: Q01DX005 (ip), vehicle: saline with Tween-80 95 % of control | dose: 100.0 mg/kg/injection, schedule: Q01DX005 (ip), vehicle: saline with Tween-80 87 % of control | dose: 200.0 mg/kg/injection, schedule: Q01DX005 (ip), vehicle: saline with Tween-80 87 % of control

CC1(C)OC2(C)CCC1C1C2N1C(=O)NCCCl (stereo unspecified)
inactive: [4] 108 % of control | [5] 100 % of control | [6] 89 % of control

CN(C)c1ccc(C=Nc2cccc(Cl)c2)cc1
inactive: [7] 108 % of control | [8] 98 % of control | [9] 103 % of control

Nc1nsc2nc3ccccc3cc12
inactive: dose: 6.25 mg/kg/injection, schedule: Q01DX005 (ip), vehicle: Klucel (hydroxypropylcellulose) (HPC) 102 % of control | dose: 12.5 mg/kg/injection, schedule: Q01DX005 (ip), vehicle: Klucel (hydroxypropylcellulose) (HPC) 100 % of control | dose: 25.0 mg/kg/injection, schedule: Q01DX005 (ip), vehicle: Klucel (hydroxypropylcellulose) (HPC) 99 % of control | [10] 112 % of control | [11] 102 % of control

CCC(=O)N/C(N)=N\C(N)=S
inactive: [12] 101 % of control | [10] 96 % of control | [11] 104 % of control

O=Nc1cc(S(=O)(=O)O)c2cccnc2c1O
inactive: dose: 100.0 mg/kg/injection, schedule: Q04DX002 (ip), vehicle: saline 100 % of control | dose: 200.0 mg/kg/injection, schedule: Q04DX002 (ip), vehicle: saline 100 % of control | dose: 400.0 mg/kg/injection, schedule: Q04DX002 (ip), vehicle: saline 90 % of control

c1ccc(C2NCCS2)cc1 (stereo unspecified)
inactive: [12] 100 % of control | [10] 104 % of control | [11] 104 % of control

CCCCCCCCCCCCCCCCCC(=O)[O][Pb]([CH3])([CH3])[CH3]
inactive: dose: 1.25 mg/kg/injection, schedule: Q01DX009 (ip), vehicle: Klucel (hydroxypropylcellulose) (HPC) 107 % of control | dose: 2.5 mg/kg/injection, schedule: Q01DX009 (ip), vehicle: Klucel (hydroxypropylcellulose) (HPC) 113 % of control | dose: 5.0 mg/kg/injection, schedule: Q01DX009 (ip), vehicle: Klucel (hydroxypropylcellulose) (HPC) 101 % of control | dose: 6.25 mg/kg/injection, schedule: Q04DX003 (ip), vehicle: Klucel (hydroxypropylcellulose) (HPC) 94 % of control | dose: 12.5 mg/kg/injection, schedule: Q04DX003 (ip), vehicle: Klucel (hydroxypropylcellulose) (HPC) 111 % of control | dose: 25.0 mg/kg/injection, schedule: Q04DX003 (ip), vehicle: Klucel (hydroxypropylcellulose) (HPC) 92 % of control

CCCCC(=O)Nc1ccc(S(=O)(=O)O)c(N=NC2C(=O)N(c3ccccc3)N=C2C)c1 (stereo unspecified)
inactive: dose: 100.0 mg/kg/injection, schedule: Q04DX003 (ip), vehicle: saline 110 % of control | dose: 200.0 mg/kg/injection, schedule: Q04DX003 (ip), vehicle: saline 100 % of control | dose: 400.0 mg/kg/injection, schedule: Q04DX003 (ip), vehicle: saline 100 % of control

C[n+]1c(-c2ccc(/C=N\Nc3nnc(S)n3/N=C/c3ccc(-c4cn5ccccc5[n+]4C)cc3)cc2)cn2ccccc21
inactive: dose: 0.23 mg/kg/injection, schedule: Q01DX005 (ip), vehicle: saline with Tween-80 101 % of control | dose: 0.47 mg/kg/injection, schedule: Q01DX005 (ip), vehicle: saline with Tween-80 92 % of control | dose: 0.94 mg/kg/injection, schedule: Q01DX005 (ip), vehicle: saline with Tween-80 95 % of control | dose: 1.88 mg/kg/injection, schedule: Q01DX005 (ip), vehicle: saline with Tween-80 100 % of control

CN(C)Cc1onc(-c2c(Cl)cccc2Cl)c1C(=O)O
inactive: [13] 103 % of control | [14] 95 % of control

O=C1NN2CCN=C2c2cccnc21
inactive: dose: 3.75 mg/kg/injection, schedule: Q01DX005 (ip), vehicle: saline with Tween-80 100 % of control | dose: 7.5 mg/kg/injection, schedule: Q01DX005 (ip), vehicle: saline with Tween-80 95 % of control | dose: 15.0 mg/kg/injection, schedule: Q01DX005 (ip), vehicle: saline with Tween-80 100 % of control and 93 % of control | [13] 101 % of control

CCCCc1ccc(N(C)C)cc1
inactive: dose: 12.5 mg/kg/injection, schedule: Q01DX009 (ip), vehicle: saline with Tween-80 101 % of control | dose: 25.0 mg/kg/injection, schedule: Q01DX009 (ip), vehicle: saline with Tween-80 110 % of control | [1] 110 % of control

O=S(=O)([O-])NC1CCCCC1.O=S(=O)([O-])NC1CCCCC1.[Hg+2].[Hg+2].[Hg+2].[O-2].[O-2]
inactive: dose: 0.5 mg/kg/injection, schedule: Q04DX003 (ip), vehicle: saline 96 % of control | dose: 1.0 mg/kg/injection, schedule: Q04DX003 (ip), vehicle: saline 100 % of control | dose: 2.0 mg/kg/injection, schedule: Q04DX003 (ip), vehicle: saline 100 % of control

NN(Cc1ccccc1[N+](=O)[O-])c1ccccc1
inactive: [1] 100 % of control | [2] 86 % of control | [3] 101 % of control

CC(C)CC(N)CO (stereo unspecified)
inactive: dose: 50.0 mg/kg/injection, schedule: Q01DX005 (ip), vehicle: suspension in saline 105 % of control | dose: 100.0 mg/kg/injection, schedule: Q01DX005 (ip), vehicle: suspension in saline 106 % of control | dose: 200.0 mg/kg/injection, schedule: Q01DX005 (ip), vehicle: suspension in saline 106 % of control

Nc1nc(=O)n(C2CC(O)C(O)C(CO)O2)cc1F (stereo unspecified)
inactive: [2] 109 % of control | [3] 97 % of control | dose: 400.0 mg/kg/injection, schedule: Q01DX009 (ip), vehicle: saline with Tween-80 93 % of control

COC(=O)C1=NC(=N)N=C(C(=O)OC)C1(C)C(=O)c1ccc(Cl)cc1 (stereo unspecified)
inactive: [13] 100 % of control and 104 % of control | [14] 98 % of control | [15] 99 % of control

O=C(O)[C@@H](NC(=O)C(Cl)(Cl)Cl)[C@@H]1CC(Br)=NO1
inactive: dose: 15.0 mg/kg/injection, schedule: Q01DX005 (ip), vehicle: distilled water + Tween-80 107 % of control and 118 % of control and 122 % of control | dose: 30.0 mg/kg/injection, schedule: Q01DX005 (ip), vehicle: distilled water + Tween-80 107 % of control | dose: 120.0 mg/kg/injection, schedule: Q01DX005 (ip), vehicle: distilled water + Tween-80 114 % of control and 98 % of control

Cn1c(=S)[nH]c2sc3c(c2c1=O)CCC3
inactive: [13] 96 % of control | [14] 93 % of control | [15] 89 % of control
